What was measured:
[1] = system: tube supported vein grafts; experiment: Isometric tension studies on rings of tube supported vein grafts; set-up: species or system New Zealand male white rabbits; settings: for EC50: Oryctolagus cuniculus, 672 h, read-out: Sensitivity, -log10(EC50) (converted)
Description: (§1) Twenty-nine New Zealand male white rabbits underwent interposition bypass grafting of the right common carotid artery using the reversed ipsilateral jugular vein. In the experimental group (n=15), once the proximal anastomosis was performed, the vein was passed through a collagen tube having dimensions of 4 mm in diameter and 35 to 40 mm in length and the distal anastomosis was then completed. Leaks were repaired and the collagen tube was fashioned to completely cover the vein graft, including both anastomoses. Control animals (n=14) were treated identically but without tube support. One intraoperative death resulted from an unrecognized leak in the mid-segment of a vein graft in the experimental group. Otherwise, there were no other significant complications such as infection or bleeding in either group. […] Postoperatively, the flow rate and intraluminal pressure in vein grafts were measured on either day 3 or 28 (n=5 per group). Vein grafts were harvested on day 3 for assessment of tyrosine phosphorylation by Western blot analysis (n=4 per group), and on day 28 for morphometric measurement (n=5 per group), scanning and transmission electron microscopy (n=5 per group) and isometric tension studies (n=5 per group). On the day of harvest, animals were anesthetized and subsequently sacrificed with an intravenous overdose of barbiturates.
(§2) Vein grafts were sectioned into four 5 mm rings. In the tube supported group, the collagen tube was carefully dissected off and removed to allow unimpeded vessel contraction and relaxation. Each ring was immediately mounted between two stainless steel hooks in 5 ml organ baths containing oxygenated Krebs solution (122 mM NaCl, 4.7 mM KCl, 1 2 mM MgCl2, 2.5 mM CaCl2, 15.4 mM NaHCO3, 1.2 mM KH2PO4 and 5.5 mM glucose, maintained at 37° C. and oxygenated with 95% O2 and 5% CO2), as previously described with some modifications. In brief, following equilibration, the resting tension was adjusted in increments from 0.5 to 1.25 gms and the maximal response to a modified oxygenated Krebs solution containing 60 mM KCl, 66.7 mM NaCl, 1.2 mM MgCl2, 2.5 mM CaCl2, 15.4 mM NaHCO3, 1.2 mM KH2PO4 and 5.5 mM glucose was measured to establish a length-tension relationship. Cumulative dose response curves to the contractile agonists bradykinin (10^−9 to 10^−5 M), norepinephrine (10^−9 to 10^−4 M), and serotonin (10^−9 to 10^−4 M) were performed. Relaxation responses to acetylcholine (10^−8 to 10^−4 M), an endothelium dependent agonist, and nitroprusside (10^−8 to 10^−4 M), an endothelium independent agonist, were assessed on rings precontracted with norepinephrine, at the concentration which produced 80% of maximal contraction. All rings were allowed to re-equilibrate for a minimum of 30 minutes between each experimental run and the same sequence of agonist testing was maintained for all experiments. (All chemicals were obtained from Sigma Chemical Co. (St Louis, Mo.)).
(§3) The concentration for the half maximal response (EC50) was calculated by logistic analysis and the sensitivity is defined as -log10(EC50). In each vein graft, the sensitivity was determined for each vessel ring (4 rings per vein graft) and the mean was taken as the value for that vein graft. Values shown are the mean±s.e.m (n=5 per group). Statistical differences between the tube supported vein grafts and control vein grafts were compared using the unpaired Student's t-test.

[2] = system: control vein grafts; experiment: Isometric tension studies on rings of control vein grafts; set-up: species or system New Zealand male white rabbits; settings: for EC50: Oryctolagus cuniculus, 672 h, read-out: Sensitivity, -log10(EC50) (converted); for EC50 / Sensitivity, -log10(EC50): day 28 control vein grafts without tube support, mean±s.e.m, n=5
Description: as §1, §2, §3

[3] = day 28 tube supported vein grafts, tube removed, mean±s.e.m, n=5

EC50 [1, 3] [nM]	Sensitivity, -log10(EC50) [2]	Compound	EC50 [2] [nM]	other results
1100	–	NC[C@H](O)c1ccc(O)c(O)c1 [Norepinephrine, norepinephrine]	1070	–
–	6.73 ± 0.19	nitroprusside	–	Sensitivity, -log10(EC50) [1, 3]: 6.46 ± 0.12
–	–	[Cl-].[K+] [KCl]	–	Contractile force ([1]; 60 mM KCl, tube supported vein grafts): 300 ± 46 mg; Contractile force ([2]; 60 mM KCl, control vein grafts): 280 ± 47 mg
120000	no response	CC(=O)OCC[N+](C)(C)C [Acetylcholine, acetylcholine]	–	Maximal relaxation ([1]; tube supported vein graft rings precontracted with norepinephrine): 64 % of precontracted tension

Compound	EC50 [1, 3] [nM]	Sensitivity, -log10(EC50) [2]	EC50 [2] [nM]	other results
NCCc1c[nH]c2ccc(O)cc12 [Serotonin, serotonin]	407	–	525	–
